The values that follow come from PMC7251097, “Aspartate/asparagine-β-hydroxylase: a high-throughput mass spectrometric assay for discovery of small molecule inhibitors” (Scientific Reports, 2020).

Each structure is given as a SMILES string. Structures can show the parent of a compound that is named as a salt. Where two headings read alike, the source gives them in different places.

This test deals with T1, His6-AspH315–758 (human aspartate/asparagine-β-hydroxylase, AspH) (Homo sapiens, UniProt Q12797).
T1 construct: N-Terminally His6-tagged human AspH315–758 (His6-AspH315–758) was produced in E. coli BL21 (DE3) cells; made in house; host or cells: E. coli BL21 (DE3), pET-28a(+) vector
T1 sequence (Q12797 315-758): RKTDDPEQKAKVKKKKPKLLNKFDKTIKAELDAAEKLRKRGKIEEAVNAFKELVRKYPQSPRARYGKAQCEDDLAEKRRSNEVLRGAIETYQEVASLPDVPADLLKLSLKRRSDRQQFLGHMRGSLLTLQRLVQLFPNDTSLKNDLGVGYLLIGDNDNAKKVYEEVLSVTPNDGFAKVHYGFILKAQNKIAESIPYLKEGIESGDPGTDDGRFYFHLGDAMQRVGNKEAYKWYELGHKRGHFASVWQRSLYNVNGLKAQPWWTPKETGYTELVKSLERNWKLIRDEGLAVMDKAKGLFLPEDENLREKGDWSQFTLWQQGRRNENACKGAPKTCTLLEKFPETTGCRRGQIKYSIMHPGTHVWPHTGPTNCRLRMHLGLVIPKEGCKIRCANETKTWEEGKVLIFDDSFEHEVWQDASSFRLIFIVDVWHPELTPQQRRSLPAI
Nature of the test: SPE-MS AspH inhibition assay (LOPAC screen at fixed 20 μM and IC50 dose-response), hydroxylation of cyclic peptide hFX-CP101–119. The class given is biochemical.

The mark [1] stands for this setting: LOPAC compound at 20uM, plate 2, conversion of substrate peptide.
[2] abbreviates: LOPAC compound at 20uM, plate 2, normalised to DMSO and 2,4-PDCA controls.
The mark [3] stands for this setting: LOPAC compound at 20uM, plate 3, conversion of substrate peptide.

As for `CN1C[C@H](O)[C@@H](O)[C@H](O)[C@H]1CO` [N-Methyl-1-deoxynojirimycin], the “Plate 2 (% conversion)” value under setting [1] came out at 34.79%. Under setting [2], the “Plate 2 (% inhibition)” value was 3.48%.

For the compound `CNC(=O)c1cc2c(cn1)[nH]c1ccccc12` [N-Methyl-beta-carboline-3-carboxamide], the “Plate 2 (% conversion)” value under setting [1] worked out at 36.80%. The “Plate 2 (% inhibition)” value under setting [2] is -2.54%.

In the case of `CNCCc1ccc(O)c(O)c1.Cl` [N-Methyldopamine hydrochloride], the “Plate 2 (% conversion)” value is reported as 9.52%. Also, under setting [2], the “Plate 2 (% inhibition)” value came to 78.96%.

On to `CNCCc1cnc(CCC(c2ccccc2)c2ccccc2)[nH]1.O=C(O)C(=O)O.O=C(O)C(=O)O` [N-Methylhistaprodifen dioxalate salt], for which the “Plate 2 (% conversion)” value under setting [1] is 8.76%. Further, the “Plate 2 (% inhibition)” value under setting [2] came to 81.23%.

With `CCCCCCCC/C=C\CCCCCCCC(=O)NCCc1ccc(O)c(O)c1` [N-Oleoyldopamine], the “% inhibition” value (LOPAC Plate 4, compound at 20 uM) is 94.15%. Also, the “% conversion” value (LOPAC Plate 4, compound at 20 uM, substrate conversion) is 4.34%.

As to `O=C(O)c1ccccc1Nc1ccccc1` [N-Phenylanthranilic acid], the “Plate 1 (% inhibition)” value (LOPAC compound at fixed 20 uM, plate 1, normalised to DMSO and 2,4-PDCA controls) is given as 20.57%. Moreover, for the setting “LOPAC compound at fixed 20 uM, substrate conversion, plate 1”, the “Plate 1 (% conversion)” value was determined as 28.96%.

`NS(=O)(=O)c1cccc2c1c([N+](=O)[O-])cc1nc([O-])c([O-])nc12.[Na+].[Na+]` [NBQX disodium]: the “Plate 3 (% conversion)” value under setting [3] worked out at 7.99%.

With `O=C(O)/C=C1\CCCc2ccccc2C1O` (stereo not shown) [NCS-382], the “Plate 3 (% conversion)” value under setting [3] stood at 38.57%.

`O=C(Nc1cccc(C(=O)Nc2ccc(S(=O)(=O)O)c3cc(S(=O)(=O)O)cc(S(=O)(=O)O)c23)c1)Nc1cccc(C(=O)Nc2ccc(S(=O)(=O)O)c3cc(S(=O)(=O)O)cc(S(=O)(=O)O)c23)c1` [NF 023, reference compound]: under setting [3], the “Plate 3 (% conversion)” value is reported as 4.28%.

Turning to `[H]/N=C(/NC)NCCC[C@H](N)C(=O)O` [NG-Monomethyl-L-arginine acetate], under setting [3], the “Plate 3 (% conversion)” value stood at 38.37%.

On to `N=C(NCCC[C@H](N)C(=O)O)N[N+](=O)[O-]` [NG-Nitro-L-arginine], for which the “Plate 3 (% conversion)” value under setting [3] is reported as 40.79%.

Take `CC(C)[C@H]1c2ccc(F)cc2CC[C@@]1(CCN(C)CCCc1nc2ccccc2[nH]1)OC(=O)C1CC1` [NNC 55-0396]: the “Plate 3 (% conversion)” value under setting [3] was found to be 58.37%.

With `O=C(O)C(=O)N[C@H](Cc1ccccc1)C(=O)O` [NOFD, N-oxalyl-D-phenylalanine, reference compound], the “IC50 [μM]” value (50 nM His6-AspH315–758, 1.0 μM hFX-CP101–119, 3 μM 2OG, 2 μM Fe(II), 50 mM HEPES pH 7.5, 20 °C, mean ± SD, n = 2 (2,4-PDCA n = 10)) was “weak”. Moreover, the IC50 (50 nM His6-AspH315–758, 1.0 μM hFX-CP101–119, 3 μM 2OG, 2 μM Fe(II), 50 mM HEPES pH 7.5, 20 °C, mean ± SD, n = 2 (2,4-PDCA n = 10), read-out: IC50) was 15.5 ± 3.13 µM.

Turning to `O=C(Nc1cc(C(F)(F)F)cc(C(F)(F)F)c1)Nc1c(Br)cc(Br)cc1-c1nn[nH]n1` [NS5806], the “Plate 2 (% conversion)” value under setting [1] was found to be 28.28%. In addition, under setting [2], the “Plate 2 (% inhibition)” value is recorded as 22.93%.

In the case of `Cl.c1ccc2c(c1)CCC[C@H]2Nc1nc2ccccc2[nH]1` [NS8593 hydrochloride], the “Plate 2 (% conversion)” value under setting [1] was determined as 39.37%. Under setting [2], the “Plate 2 (% inhibition)” value is on record as -10.19%.

`O=c1onc2n1-c1cc(Br)ccc1OC2` [NS 2028]: the “Plate 3 (% conversion)” value under setting [3] was determined as 35.06%.

`O=c1[nH]c2cc(C(F)(F)F)ccc2n1-c1cc(C(F)(F)F)ccc1O` [NS-1619]: the “Plate 3 (% conversion)” value under setting [3] was determined as 36.56%.

As to `O=C1C(SCCO)=C(SCCO)C(=O)c2ccccc21` [NSC 95397], the “Plate 2 (% conversion)” value is 23.59%. For the same compound, where the note is “20 µM”, the “Plate 2 (% inhibition)” value is given as 36.92%.

Take `CN(C)C(N)=NCCC[C@H](N)C(=O)O.Cl` [N^G,N^G-Dimethylarginine hydrochloride]: under setting [1], the “Plate 2 (% conversion)” value came to 37.98%. Moreover, the “Plate 2 (% inhibition)” value under setting [2] is recorded as -6.05%.

In the case of `COc1ccc2c(c1)CCC(c1ccccc1)=C2c1ccc(OCCN2CCCC2)cc1` [Nafoxidine], under “plate 5 (Pfitzer), test compounds at fixed 20 μM”, the “Plate 5 (% inhibition)” value is listed as -70.28%. For the same compound, the “Plate 5 (% conversion)” value (plate 5 (Pfitzer), test compounds at fixed 20 μM, mean conversion DMSO 32.88) is 60.23%.

Take `CCn1cc(C(=O)[O-])c(=O)c2ccc(C)nc21.[Na+]` [Nalidixic acid sodium]: the “Plate 3 (% conversion)” value under setting [3] came out at 26.41%.

As to `C=CCN1CC[C@]23c4c5ccc(O)c4O[C@H]2C(=O)CC[C@@]3(O)[C@H]1C5` [Naloxone hydrochloride], the “Plate 3 (% conversion)” value was found to be 40.30%.
